Results from patent USRE39181E1, “Aqueous risperidone formulations” (priority 1994, dated 2006).

Details: room temperature

With risperidone tartrate the solubility (aqueous media) was “about 80 mg/ml” and the “solubility relative to risperidone hydrochloride” value was “about 4 times”.
